Measured values as given in article PMC10197068 (Bioconjugate Chemistry, 2023).
Blank lines part the entries; values can stand above or below the compound they belong to.

Experiments:
[1] = test system: G1 (DNA, G4) AGGGTTAGGGTTAGGGTTAGGG; assay: CD melting at 295 nm; details: 100 mM NaCl, 10 mM Li cacodylate, pH 7.3, 6 μM DNA
[2] = test system: G2T6 (DNA, G4) AGGGTTAGGGTTAGGGTTAGGGTTATTATTATTATTATTAGGGTTAGGGTTAGGGTTAGGG; assay: CD melting at 295 nm; details: 100 mM NaCl; 10 mM Li cacodylate, pH 7.3; 6 μM compound (12 μM salphen units), 3 μM DNA
[3] = test system: G1 (K+) monomeric HTelo G4 DNA; assay: Emission titration with G1 (K+); format: binding, human; details: Table S2, unit not given, ligand 2 μM, 100 mM KCl, 10 mM Li cacodylate, pH 7.3, exc 440 nm, em 590 nm, triplicate
Procedure: (§1) Next, emission titrations were carried out with the emissive Pt^II compounds M2 and D3–8 and G4/duplex DNA to obtain association constants. Both Na^+ and K^+ stabilized monomeric and dimeric G4 DNA were investigated. Additionally, titrations were carried out with CT-DNA to evaluate the selectivity for G4 versus duplex DNA. Figure 5 summarizes the obtained results (see Figures S24–S37 and Table S2 for a full set of titration data). First discussed are the experiments conducted in Na^+ buffer, in which the G4 topology formed is antiparallel.[41] […] As discussed previously, this could potentially be caused by a “sandwiched” binding mode in which the metal-salphen complex sits between two G-quadruplex units. For dimeric metal-salphen complexes D3–8, however, there are several differences when compared to the CD melting studies. […] Upon increasing the linker length to a two-amino-acid sequence (RR and KK for compounds D4 and D5, respectively), larger Ka values were obtained with minimal change to the pattern of selectivity. […] Increasing the linker length to an eight-amino-acid sequence (RRRRRRRR) led to a similar stabilization of G2T6, while G1 stabilization increased.
(§2) G-Quadruplex oligonucleotides were purchased from Eurogentec (Belgium), and CT-DNA was purchased from Sigma-Aldrich. Stock solutions were prepared via dilution in the appropriate buffers to concentrations of 300–400 μM determined by UV–vis measurements in which increasing amounts of DNA were added to a cuvette and the absorbance at 260 nm recorded using an Agilent Cary UV 60 spectrometer. Prior to use, the DNA stock solutions were annealed by heating at 95 °C for 5 min and then cooling to room temperature overnight.
(§3) Experiments were carried out using a BMG Clariostar Microplate reader with Greiner Bio-One half-volume (100 μL/well) plates. Excitation was carried out at 440 nm and recorded from 500 to 700 nm in addition to a matrix scan at 590 nm. Titrations were carried out using G1, G2T1, and G2T6 (Na^+) G4 DNA (100 mM NaCl, 10 mM Li cacodylate, pH 7.3); G1, G2T1, and G2T6 (K^+) G4 DNA (100 mM KCl, 10 mM Li cacodylate, pH 7.3); and CT-DNA (100 mM KCl, 10 mM Li cacodylate, pH 7.3). Ligand concentration was kept constant at 2 μM, and the following DNA equivalents were tested: 0, 0.1, 0.2, 0.3, 0.4, 0.5, 0.75, 1, 1.5, 2, 3, and 5 (for CT-DNA 10× base pair equivalents were used, i.e., 1 to 50 BPE). Sample preparation was carried out by preparing stock solutions of double concentration ligand (4 μM) and DNA in the appropriate buffer, before 50 μL of each was added to the appropriate well and mixed. Experiments were conducted in triplicate and binding constants were obtained by curve fitting in Graphpad Prism 8 using eq 1.[46] [drawing 1] 1
(§4) Fluorescence response (y) was fitted against DNA concentration (x); R is the machine response, K is the association constant of ligand and DNA, L is the concentration of ligand, and n is the number of binding sites per DNA. The values of L and n were varied so that that the L was equal to the number of salphen units and n was equal to the number of G4 faces per DNA. The matrix scan results were used to plot the titration curves and 500–700 nm scan results were used to confirm that expected curve shapes and shifts were observed.

[4] = test system: G2T1 (K+) dimeric HTelo G4 DNA; assay: Emission titration with G2T1 (K+); format: binding, human; details: Table S2, unit not given, ligand 2 μM, 100 mM KCl, 10 mM Li cacodylate, pH 7.3, exc 440 nm, em 590 nm, triplicate
Procedure: as §1, §2, §3, §4

[5] = test system: G2T6 (K+) dimeric HTelo G4 DNA; assay: Emission titration with G2T6 (K+); format: binding, human; details: Table S2, unit not given, ligand 2 μM, 100 mM KCl, 10 mM Li cacodylate, pH 7.3, exc 440 nm, em 590 nm, triplicate
Procedure: as §1, §2, §3, §4

[6] = test system: G1 (Na+) monomeric HTelo G4 DNA; assay: Emission titration with G1 (Na+); format: binding, human; details: Table S2, unit not given, ligand 2 μM, 100 mM NaCl, 10 mM Li cacodylate, pH 7.3, exc 440 nm, em 590 nm, triplicate
Procedure: as §1, §2, §3, §4

[7] = test system: G2T1 (Na+) dimeric HTelo G4 DNA; assay: Emission titration with G2T1 (Na+); format: binding, human; details: Table S2, unit not given, ligand 2 μM, 100 mM NaCl, 10 mM Li cacodylate, pH 7.3, exc 440 nm, em 590 nm, triplicate
Procedure: as §1, §2, §3, §4

[8] = test system: G2T6 (Na+) dimeric HTelo G4 DNA; assay: Emission titration with G2T6 (Na+); format: binding, human; details: Table S2, unit not given, ligand 2 μM, 100 mM NaCl, 10 mM Li cacodylate, pH 7.3, exc 440 nm, em 590 nm, triplicate
Procedure: as §1, §2, §3, §4

[9] = Precipitation on addition to DNA solution (CD melting conditions); format: physicochemical; details: CD melting concentrations: dimeric salphen 6 μM, G1 6 μM or G2Tx 3 μM; 100 mM NaCl, 10 mM Li cacodylate, pH 7.3
Procedure: First, circular dichroism (CD) melting experiments were carried out with compounds D1–8 and their monomeric analogues M1–2 via the combination of DNA and compound in which the ratio of salphen units to G4 external tetrads was kept at a constant ratio of 2:1, i.e., [monomeric salphen] = 12 μM, [dimeric salphen] = 6 μM, [G1] = 6 μM, and [G2Tx] = 3 μM. The CD melting experiments were conducted solely with Na^+ stabilized DNA, which forms an antiparallel topology in solution (cf., in the presence of K^+ a mixture of topologies is observed). During the assay the temperature was increased from 25 to 95 °C upon which the intensity of signals with negative ellipticity at ca. 265 nm and positive ellipticity at ca. 295 (characteristic of an antiparallel G4 structure) decreased—see Figure 4a. This indicates the expected unfolding of the G4 DNA structure as the temperature increases. […] From these curves, the ΔTm values for the different sequences and compounds were determined, and the results are summarized in Figure 4c (see Supplementary Table 1 for values).
Experiments were carried out on a Jasco J-810 spectrophotometer using a 1 cm quartz cuvette. […] The signal at 295 nm was monitored as temperature was increased for 25 to 95 °C at a rate of 2 °C/min. […]

[10] = test system: human osteosarcoma U2OS cells
Procedure: Cytotoxicity studies of compounds were carried out on a U-2 OS cell line (human osteosarcoma cells). These cells were grown on culture medium McCoy’s 5A Medium supplemented with 10% FBS (Fetal Bovine Serum) in an atmosphere of 95% air and 5% CO2 at 37 °C. Inhibition of cell growth induced by the tested compound was evaluated using a MTT assay. The cells were seeded in a sterile 96-well plate at a density of 15,000 cells per well and incubated for 24 h in growth medium. Afterward, the compound dissolved in H2O or DMSO was added to the cells maintaining the same proportion of solvent in each well. After 48 h of incubation in an atmosphere of 95% air and 5% CO2 at 37 °C, 10 μL of 5 mg/mL MTT prepared in PBS (0.136 M NaCl, 1.47 mM KH2PO4, 8 mM NaH2PO4, and 2.68 mM KCl) was added to each well, and the cell plate was incubated for another 4 h. […] Finally, absorbance of the cell plate was measured at a wavelength of 595 nm (Tecan M1000 infinite Pro). […] The absorbance measurement range was assessed between one value (average of triplicate points) containing 15,000 cells in McCoy’s 5A medium and in the absence of growth factors (which allows to determine the stable cell concentration) and another value (average of triplicate points) containing the usual growth medium (which allows to measure the maximum cell growth at 48 h). […]

ΔTm ([1]; 6 μM compound (12 μM salphen units)): 5.5 °C
Compound: C[N+](C)(C)CCOc1ccc(C=Nc2ccc(C(=O)NCc3cn(CC(=O)N[C@@H](CCCCN)C(=O)N[C@@H](CCCCN)C(=O)N[C@@H](Cn4cc(CNC(=O)c5ccc(N=Cc6ccc(OCC[N+](C)(C)C)cc6[O-])c(N=Cc6ccc(OCC[N+](C)(C)C)cc6[O-])c5)nn4)C(N)=O)nn3)cc2N=Cc2ccc(OCC[N+](C)(C)C)cc2[O-])c([O-])c1.[Pt+2].[Pt+2]

ΔTm ([1]; 6 μM compound, b22 states 1.1–1.5 °C for D1–4): 3.0 °C
ΔTm [2]: 6.4 °C
Compound: C[N+](C)(C)CCOc1ccc(C=Nc2ccc(C(=O)NCc3cn(CCOCCn4cc(CNC(=O)c5ccc(N=Cc6ccc(OCC[N+](C)(C)C)cc6[O-])c(N=Cc6ccc(OCC[N+](C)(C)C)cc6[O-])c5)nn4)nn3)cc2N=Cc2ccc(OCC[N+](C)(C)C)cc2[O-])c([O-])c1.[Pt+2].[Pt+2]

IC50 [10]: 43 µM
Compound: RRRRRRRR [Compound D8]
Association constant G1 (K+), mean [3]: 0.84
Association constant G2T1 (K+), mean [4]: 0.22
Association constant G2T6 (K+), mean [5]: 0.38
Association constant G1 (Na+), mean [6]: 0.47
Association constant G2T1 (Na+), mean [7]: 0.31
Association constant G2T6 (Na+), mean [8]: 0.75
precipitation on addition to the DNA solution [9]: caused precipitation
